{"source": "patent US6071884A", "about": "“Pharmaceutical compositions and therapeutic methods” (Kirin Beer Kabushiki Kaisha, priority 1992, dated 2000)", "key": {"[1]": {"system": "marrow cells (mononuclear cell fraction)", "test": "Effect on marrow cell of monkey (3H-TdR uptake)", "format": "cell-based, croo monkey", "conditions": "Primates, 96 h, percentage of control, 4 days", "experimental": "Pharmacological Test 2: Effect on Marrow Cell of Monkey\nMarrow cells were prepared from the humerus of a croo monkey, and an MNF obtained by fractionation using a Lymphoprep (Nycomed Pharma AS, Oslo, Norway) was used in the following experiment.\nThe MNF was suspended in an RPMI 1640 medium added with 10% blood plasma of a croo monkey to make its concentration 1×10^6 cells/ml.\n10 μl/well of a sample with a predetermined concentration and 100 μl/well of the above-prepared MNF were placed on a round-bottomed 96 well plate, and incubated under the conditions of 37° C. and 5% CO2 for 4 days. Thereafter, 0.5 μCi/well of ^3 H-TdR was added. After 6 hours, the cells were harvested, and the amount of the ^3 H-TdR taken in the nuclei was measured by a liquid scintillation counter."}, "blood platelets [2]": {"system": "blood platelets", "test": "Thrombocytopenia-inhibiting effect in X-ray-irradiated mice", "format": "in vivo, mouse (BDF1)", "conditions": "10 days after 5 Gy X-ray; 0.1 mg/kg i.v. within 2 h; mean ± SD; vehicle per series 10.3, 6.8, 6.7; non-treatment 68.2, 96.9, 73.0", "method_in_brief": "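Female BDF1 mice, 6 weeks old, six per group, given 5 Gy whole-body X-ray, then 0.1 mg/kg i.v. via tail vein within 2 hours. Platelets counted by hemocytometer in fundus-vein blood 10 days later; untreated and vehicle groups run alongside.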"}, "blood platelets [3]": {"system": "blood platelets", "test": "Blood-platelet-increasing effect upon normal mouse", "format": "in vivo, mouse (BDF1)", "conditions": "normal mice; 6 days after 0.1 mg/kg i.v.; mean ± SD; vehicle per series 58.2, 63.0, 71.1", "method_in_brief": "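Female BDF1 mice, 6 weeks old (5 per group), received test sample at 0.1 mg/kg into the caudal vein. Six days later, fundus-vein blood was taken and platelets counted on a multi-channel hemocytometer, compared against vehicle-treated animals.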"}, "[4]": {"test": "Life-span-increasing effect on irradiation of a lethal dose of radiation", "format": "in vivo, mouse (BDF1)", "conditions": "10 mice/group, 9 Gy X-ray, 0.1 mg/kg i.v. days 0, 4, 8", "experimental": "Pharmacological Test 4: Life-Span-Increasing Effect on Irradiation of a Lethal Dose of Radiation\nAn experiment was carried out by using 6 week old female BDF1 mice purchased from Japan SLC Co., Ltd., with 10 mice made one group.\nThe entire bodies of the entire body of the mice were irradiated with 9 Gy of X-rays by using a Hitachi X-ray irradiator (MBR-1520R), and the day on which the X-ray was irradiated was referred to as \"day 0\"."}, "[5]": {"system": "mononuclear cell fraction of human umbilical cord blood", "test": "Proliferation-stimulating effect on mononuclear cell fraction of human umbilical cord blood (3H-TdR uptake)", "format": "cell-based", "conditions": "96 h, percentage of control, 4 days", "from_the_text": "Pharmacological Test 3: Proliferation-Stimulating Effect on Mononuclear Cell Fraction of Human Umbilical Cord Blood\nIt is extremely difficult to obtain human marrow cells. In addition, human umbilical cord blood contains stem cells (Nakahata, T. & Ogwa, M., J. Clin. Inveet. 70, 1324-1328 (1982)), so that it can be a good source of hematopoietic stem/progenitor cell supply (H. E. Broxneyer et al, Proc. Natl. Acad. Sci. USA, 86, 3828-3832 (1989)). For these reasons, the effect on human was examined by using, instead of human marrow cells, human umbilical cord blood.\nTo human umbilical cord blood was added an equal amount of RPMI 1640. This was placed on a Lymphoprep and centrifugal. The mononuclear cell fraction (MNF) thus obtained was used in the following experiment.\nThe concentration of the MNF was adjusted to 1×10^6 cells/ml by using an RPMI 1640 added with 10% auto-blood plasma as a culture medium. 10 μl/well of a sample with a predetermined concentration and 100 μl/well of the above-prepared MNF were placed on a round-bottomed 96 well plate and incubated under the conditions of 37° C. and 5% CO2 for 4 days. Thereafter, 0.5 μCi/well of ^3 H-TdR was added. After 8 hour incubation, the cells were harvested, and the amount of the 3H-TdR taken in the nuclei was measured by a liquid scintillation counter."}, "[6]": {"system": "marrow cells (mononuclear cell fraction)", "test": "Proliferation-stimulating effect on marrow cell of mouse (3H-TdR uptake)", "format": "cell-based, mouse (BALB/c)", "conditions": "percentage of control, 72 h", "method_in_brief": "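Mononuclear marrow cell fraction from 7-week-old female BALB/c mouse thigh bone, 1.5×10^6 cells/ml in 10% FCS RPMI 1640, cultured with test sample 72 h at 37° C. ³H-thymidine (0.5 μCi/well) then added for 8 h; nuclear ³H-TdR uptake counted by liquid scintillation.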"}}, "data": [{"smiles": "CCCCCCCCCCCCCCCCCCCCCCCC[C@@H](O)C(=O)N[C@@H](CO[C@H]1O[C@H](CO)[C@H](O)[C@H](O)[C@H]1O)[C@H](O)[C@H](O)CCCCCCCCCCCCCC", "note": "[Compound 25]", "values": [{"measurement": "activity at 0.1 µg/mL", "setting": "[1]; 10^-1 μg/ml", "value": 184, "unit": "%"}, {"measurement": "activity at 0.01 µg/mL", "setting": "[1]; 10^-2 μg/ml", "value": 186, "unit": "%"}, {"measurement": "Number of Blood Platelets", "setting": "blood platelets [2]", "value": "15.6 ± 5.3 × 10^4 /μl"}, {"measurement": "Number of Blood Platelets", "setting": "blood platelets [3]", "value": "124.1 ± 14.7 × 10^4 /μl"}, {"measurement": "Number of Surviving Mice", "setting": "[4]; day 10, controls per series 10, 10, 10, 10, 10, 8", "value": 10, "unit": "mice"}, {"measurement": "Number of Surviving Mice", "setting": "[4]; day 15, controls per series 8, 9, 5, 5, 7, 1", "value": 10, "unit": "mice"}, {"measurement": "Number of Surviving Mice", "setting": "[4]; day 20, controls per series 4, 5, 1, 2, 3, 0", "value": 7, "unit": "mice"}, {"measurement": "Number of Surviving Mice", "setting": "[4]; day 25, controls per series 3, 3, 0, 0, 2, 0", "value": 7, "unit": "mice"}, {"measurement": "Number of Surviving Mice", "setting": "[4]; day 30, controls per series 1, 1, 0, 0, 0, 0", "value": 5, "unit": "mice"}, {"measurement": "Number of Surviving Mice", "setting": "[4]; day 35, all controls 0", "value": 5, "unit": "mice"}, {"measurement": "Number of Surviving Mice", "setting": "[4]; day 40, all controls 0", "value": 5, "unit": "mice"}, {"measurement": "activity at 0.1 µg/mL", "setting": "[5]; 10^-1 μg/ml", "value": 336, "unit": "%"}, {"measurement": "activity at 0.01 µg/mL", "setting": "[5]; 10^-2 μg/ml", "value": 319, "unit": "%"}, {"measurement": "activity at 0.001 µg/mL", "setting": "[5]; 10^-3 μg/ml", "value": 229, "unit": "%"}, {"measurement": "activity at 0.1 µg/mL", "setting": "[6]; 10^-1 μg/ml", "value": 331, "unit": "%"}, {"measurement": "activity at 0.01 µg/mL", "setting": "[6]; 10^-2 μg/ml", "value": 161, "unit": "%"}, {"measurement": "activity at 0.001 µg/mL", "setting": "[6]; 10^-3 μg/ml", "value": 153, "unit": "%"}]}]}
